Reference: patent EP4567032A1, “KIF18A INHIBITOR COMPOUND, AND PHARMACEUTICAL COMPOSITION AND PREPARATION METHOD THEREFOR AND USE THEREOF” (Changchun Genescience Pharmaceutical Co., Ltd., priority 2022, dated 2024)
pIC50: −log10 of the molar value.

Tests used:
KIF18A = target: T1, KIF18A (Homo sapiens, UniProt Q8NI77); assay: KIF18A enzyme activity test (ADP Glo); type: biochemical; details: ADP Glo luminescence, 60 min reaction at room temperature, 1% DMSO
T1 sequence (Q8NI77 1-898): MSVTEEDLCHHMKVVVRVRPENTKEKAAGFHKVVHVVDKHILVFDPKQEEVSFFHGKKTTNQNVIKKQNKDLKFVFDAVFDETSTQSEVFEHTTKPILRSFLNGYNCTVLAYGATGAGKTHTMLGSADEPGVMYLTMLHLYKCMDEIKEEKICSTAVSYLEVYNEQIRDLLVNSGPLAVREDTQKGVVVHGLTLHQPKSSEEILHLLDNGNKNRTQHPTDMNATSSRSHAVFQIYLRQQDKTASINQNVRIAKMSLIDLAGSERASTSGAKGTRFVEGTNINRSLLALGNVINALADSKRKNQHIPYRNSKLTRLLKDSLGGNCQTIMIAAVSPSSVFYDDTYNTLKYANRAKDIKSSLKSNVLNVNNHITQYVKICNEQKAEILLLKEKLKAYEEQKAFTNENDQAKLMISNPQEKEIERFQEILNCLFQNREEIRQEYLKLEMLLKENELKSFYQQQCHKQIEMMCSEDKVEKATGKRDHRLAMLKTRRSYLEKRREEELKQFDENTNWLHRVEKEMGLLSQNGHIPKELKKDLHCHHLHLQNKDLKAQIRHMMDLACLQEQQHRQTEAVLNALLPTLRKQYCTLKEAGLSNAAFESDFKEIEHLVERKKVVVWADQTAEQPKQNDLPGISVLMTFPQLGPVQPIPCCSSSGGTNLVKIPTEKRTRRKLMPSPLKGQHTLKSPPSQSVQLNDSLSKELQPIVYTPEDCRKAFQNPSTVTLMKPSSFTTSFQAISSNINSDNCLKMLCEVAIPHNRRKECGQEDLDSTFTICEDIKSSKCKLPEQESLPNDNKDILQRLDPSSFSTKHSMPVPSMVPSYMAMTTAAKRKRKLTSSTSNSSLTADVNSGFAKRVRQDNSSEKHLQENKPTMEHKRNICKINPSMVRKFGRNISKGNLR
Experimental: Test name: KIF18A enzyme activity test
• 1) Compound dilution and treatment: The final concentrations of AM-5308: 10000, 3333.3, 1111.1, 370.3, 123.4, 41.1, 13.7, 4.5, 1.5, 0.5 nM, the final testing concentrations of the testing compound: 10000, 3333.3, 1111.1, 370.3, 123.4, 41.1, 13.7, 4.5, 1.5 and 0.5 nM. • 2) To each well of the reaction plate, 100 nL of the diluted compound stock solution was transferred using Echo 655. The final concentration of DMSO was 1%. • 3) The reaction plate was sealed with a sealing membrane and centrifuged at 1000g for 1 min. • 4) A 2× enzyme solution was prepared with 1× reaction buffer. • 5) To each well of the reaction plate, 5 µL of 2×enzyme solution was added. The plate was sealed with a sealing membrane, centrifuged at 1000g for 1 min and left at room temperature for 15 min. • 6) A 2× ATP solution was prepared with 1× reaction buffer. • 7) To the reaction plate, 5 µL of 2×ATP solution was added, the plate was centrifuged at 1000g for 1 min, and the reaction was started. • 8) The system was allowed to react at room temperature for 60 min. • 9) 10 µL of ADP Glo reagent was added. The system was centrifuged at 1000 g for 1 min and incubated at room temperature for 60 min. • 10) 20 µL of kinase detection reagent was added. The system was centrifuged at 1000 g for 1 min, and incubated at room temperature for 60 min. • 11) The system was centrifuged at 1000 g for 1 min. • 12) The luminescence signals were read on Envision 2104.
The inhibition percentage is calculated as follows: %inhibition = 100−(Signalcmpd−SignalAve_PC)/(SignalAve_VC−SignalAve_PC) × 100 [formula] • Signalcmpd: Average value of the test compound on the reaction plate. • SignalAve_PC: Average value of the positive control (AM-5308) on the reaction plate. • SignalAve_VC: Average value of the negative control (DMSO) on the reaction plate.
IC50 was calculated and the dose-effect curve was fit: The IC50 of the compound was obtained by non-linear fitting formula with GraphPad 8.0.
Z factor > 0.5; S/B > 2. Table 2 Enzyme activity data for the compound of the present application

OVCAR-3 cells = assay: imaging-based nuclear count analysis (NCA) in OVCAR-3 cells; type: cell-based; details: Homo sapiens, 96 h, cultured 4 days, Hoechst 33342 nuclear count, 0.1% DMSO
Experimental: Test name: imaging-based nuclear count analysis (NCA) in OVCAR-3 cells
• a) When the cell confluence reached 80%-90%, the cells were treated. • b) The cells were resuspended in a medium and then counted and diluted at a desired density. • c) A cell suspension containing appropriate cells was added to the 384-well plate at 30 µL/well: 600 cells/well.
• a) 30 µL of 8% fixative (final concentration 4%) was added and the plate was incubated at room temperature for 30 min. • b) The plate was centrifuged at 1000RPM for 30s. • c) The plate was washed twice with 60 µl/well PBS. • d) After immobilization, the cells were permeabilized and stained in 60 µL of a wash buffer containing 2 µg/mL Hoechst 33342 DNA dye (1% BSA, 0.2% Triton X-100, 1X PBS). • e) The plate was sealed and incubated at room temperature in the dark for 1 h. • f) It was washed with PBS 3 times. • g) 50µLPBS/well was added and the plate was scanned using HCS. • h) Data acquisition and detection
High-reading control wells: cells + 30 nL DMSO; low-reading control wells: 10 µM AM-5308.
IC50 (nM) was calculated using GraphPad Prism 8 software and the effect-dose curves of the compound were plotted. Table 1 Bioactivity data of the compound of the present application

Row | pIC50 (KIF18A) | pIC50 (OVCAR-3 cells) | SMILES
1 | 7.86 | 7.14 | O=C(Nc1cccc2c1nc1n2CCC1)c1ccc(NS(=O)(=O)CCO)cc1N1CCC2(CC1)CC2 [Compound 36, N-(2,3-dihydro-1H-benzo[d]pyrrolo[1,2-a]imidazol-5-yl)-4-(2-hydroxyethanesulfonylamino)-2-(6-azaspiro[2.5]octan-6-yl)benzamide]
2 | 7.82 | 7.44 | O=C(Nc1cccc2c1nc1n2CCC1(F)F)c1ccc(NS(=O)(=O)CCO)cc1N1CCC2(CC1)CC2 [Compound 94, N-(3,3-difluoro-2,3-dihydro-1H-benzo[d]pyrrolo[1,2-a]imidazol-5-yl)-4-(2-hydroxyethanesulfonylamino)-2-(6-azaspiro[2.5]octan-6-yl)benzamide]
3 | 8.05 | 7.05 | O=C(Nc1cccc2c1nc1n2C2CCC1C2)c1ccc(NS(=O)(=O)CCO)cc1N1CCC2(CC1)CC2 (stereo not drawn) [Compound 96, 4-(2-hydroxyethanesulfonylamino)-2-(6-azaspiro[2.5]octan-6-yl)-N-(1,2,3,4-tetrahydro-1,4-methylenebenzo[4,5]imidazo[1,2-a]pyridin-6-yl)benzamide]
4 | 8.27 | 7.22 | O=C(Nc1cccc2c1nc1n2[C@H]2CC[C@@H]1C2)c1ccc(NS(=O)(=O)CCO)cc1N1CCC2(CC1)CC2 [Compound 96a, 4-(2-hydroxyethanesulfonylamino) -2-(6-azaspiro[2.5]octan-6-yl)-N-((1S,4R)-1,2,3,4-tetrahydro-1,4-methylenebenzo[4,5]imidazo [1,2-a]pyridin-6-yl)benzamide]
5 | 8.04 | 7.23 | O=C(Nc1cccc2c1nc1n2CCCCC1)c1ccc(NS(=O)(=O)CCO)cc1N1CCC2(CC1)CC2 [Compound 97, 4-(2-hydroxyethanesulfonylamino)-2-(6-azaspiro[2.5]octan-6-yl)-N-(7,8,9,10-tetrahydro-6H-benzo[4,5]imidazo[1,2-a]azepin-4-yl)benzamide]
6 | 7.58 | 6.77 | CC1CCCn2c1nc1c(NC(=O)c3ccc(NS(=O)(=O)CCO)cc3N3CCC4(CC3)CC4)cccc12 (stereo not drawn) [Compound 98, 4-(2-hydroxyethanesulfonylamino)-N-(4-methyl-1,2,3,4-tetrahydrobenzo[4,5]imidazo[1,2-a]pyridin-6-yl)-2-(6-azaspiro[2.5]octan-6-yl)benzamide]
